The nature of assay [1]: Antagonist activity at human dopamine D2 receptor expressed in CHOp cells assessed as inhibition of quinpirol-induced mitogenesis incubated for 24 hrs by [3H]thymidine incorporation assay. For orientation: Dividing cells build labelled thymidine or BrdU into new DNA.
The nature of assay [2]: Antagonist activity at human dopamine D3 receptor expressed in CHOp cells assessed as inhibition of quinpirol-induced mitogenesis incubated for 24 hrs by [3H]thymidine incorporation assay.
A short description of assay [3]: Agonist activity at human dopamine D3 receptor expressed in CHOp cells assessed as stimulation of mitogenesis incubated for 24 hrs by [3H]thymidine incorporation assay.

The IC50 is the point on the concentration scale where inhibition reaches its midpoint. By EC50 is commonly meant the concentration that produces a half-maximal response. Regarding `Oc1cccc(CCN(CCc2ccccc2)CC2CCC2)c1`, the 50% inhibitory concentration (IC50) in assay [1] came to 1650 nM; in assay [2], 953 nM. Further, the half-maximal effective concentration (EC50) in assay [3] is above 10000 nM.
In the case of `CCCN(CCc1ccccc1)CCc1cccc(O)c1`, the concentration giving a half-maximal response (EC50) in assay [3] was 5.3 nM.
As to `CCCCCCN(CCc1ccccc1)CCc1cccc(O)c1`, the IC50 in assay [1] stood at 1250 nM.
For the compound `Oc1cccc(CCN(CCc2ccccc2)CC2CC2)c1`, the half-maximal effective concentration (EC50) in assay [3] amounted to 32 nM.

The record behind these values is BindingDB's records for doi:10.1021/jm301258w (University of Innsbruck, 2012).
